Values after ≈ are worked out from the molar mass of the structure shown. Active and inactive are the calls of the source. No cut-off for these calls is given here.
Columns and labels:
Streptococcus pneumoniae [1] = experiment: Antibacterial activity against Streptococcus pneumoniae Mef 6966; type: functional
Streptococcus pneumoniae [2] = experiment: Antibacterial activity against Streptococcus pneumoniae Mef 1566; type: functional
[3] = Oral bioavailability in Sprague-Dawley rat at 100 mg/kg, po; type: ADME, organism-based; conditions: in vivo
Streptococcus pneumoniae [4] = experiment: Antibacterial activity against Streptococcus pneumoniae Erm S 4085; type: functional
Streptococcus pneumoniae [5] = experiment: Antibacterial activity against Streptococcus pneumoniae 280-962; type: functional
Streptococcus pneumoniae [6] = experiment: Antibacterial activity against Streptococcus pneumoniae 49619; type: functional
Streptococcus pneumoniae [7] = experiment: Antibacterial activity against Streptococcus pneumoniae Erm S 4297; type: functional
Rattus norvegicus [8] = experiment: Efficacy against Streptococcus pneumoniae Erm in Sprague-Dawley rat lung infection model at 100 mg/kg; type: functional, organism-based; design: dose 100 mg/kg
[9] = Plasma half life in Sprague-Dawley rat at 5 mg/kg, iv; type: ADME, organism-based; design: dose 5 mg/kg, route intravenous
[10] = Plasma half life in Sprague-Dawley rat at 15 mg/kg, po; type: ADME, organism-based; design: dose 15 mg/kg, route oral
Streptococcus pneumoniae [11] = experiment: Antibacterial activity against Streptococcus pneumoniae Erm 2218; type: functional
[12] = Lung-to-plasma AUC ratio in Sprague-Dawley rat at 5 mg/kg, iv; type: ADME, organism-based; design: dose 5 mg/kg, route intravenous; conditions: lung and plasma
Streptococcus pneumoniae [13] = experiment: Antibacterial activity against Streptococcus pneumoniae Erm 6849; type: functional
Streptococcus pneumoniae [14] = experiment: Antibacterial activity against Streptococcus pneumoniae Erm 8919; type: functional
Streptococcus pneumoniae [15] = experiment: Antibacterial activity against Streptococcus pneumoniae Mef 3449; type: functional
Enterococcus faecalis [16] = experiment: Antibacterial activity against Enterococcus faecalis 29212; type: functional
Streptococcus pneumoniae [17] = experiment: Antibacterial activity against Streptococcus pneumoniae Erm 8339; type: functional
Streptococcus pneumoniae [18] = experiment: Antibacterial activity against Streptococcus pneumoniae Mef 983; type: functional
Streptococcus pneumoniae [19] = experiment: Antibacterial activity against Streptococcus pneumoniae Mef 5649; type: functional
Streptococcus pneumoniae [20] = experiment: Antibacterial activity against Streptococcus pneumoniae Erm 6396; type: functional
Streptococcus pneumoniae [21] = experiment: Antibacterial activity against Streptococcus pneumoniae Mef 4126; type: functional
Streptococcus pneumoniae [22] = experiment: Antibacterial activity against Streptococcus pneumoniae Erm 5415; type: functional
Streptococcus pneumoniae [23] = experiment: Antibacterial activity against Streptococcus pneumoniae Mef 2382; type: functional
Staphylococcus aureus [24] = experiment: Antibacterial activity against Staphylococcus aureus 29213; type: functional
Streptococcus pneumoniae [25] = experiment: Antibacterial activity against Streptococcus pneumoniae Erm 5590; type: functional
Streptococcus pneumoniae [26] = experiment: Antibacterial activity against Streptococcus pneumoniae Mef S 3427; type: functional
Streptococcus pneumoniae [27] = experiment: Antibacterial activity against Streptococcus pneumoniae Erm 8947; type: functional
Streptococcus pneumoniae [28] = experiment: Antibacterial activity against Streptococcus pneumoniae Erm 867; type: functional
Streptococcus pneumoniae [29] = experiment: Antibacterial activity against Streptococcus pneumoniae Mef 953; type: functional
[30] = test system: Staphylococcus epidermidis; experiment: Antibacterial activity against Staphylococcus epidermidis f50654; type: functional
Streptococcus pneumoniae [31] = experiment: Antibacterial activity against Streptococcus pneumoniae Mef 2880; type: functional
Streptococcus pneumoniae [32] = experiment: Antibacterial activity against Streptococcus pneumoniae Erm 8257; type: functional
Streptococcus pneumoniae [33] = experiment: Antibacterial activity against Streptococcus pneumoniae Erm 5554; type: functional
Streptococcus pneumoniae [34] = experiment: Antibacterial activity against Streptococcus pneumoniae Erm 10279; type: functional
Streptococcus pneumoniae [35] = experiment: Antibacterial activity against Streptococcus pneumoniae Mef 9142; type: functional
Streptococcus pneumoniae [36] = experiment: Antibacterial activity against Streptococcus pneumoniae 297-749; type: functional
Haemophilus influenzae [37] = experiment: Antibacterial activity against Haemophilus influenzae 49247; type: functional
[38] = Oral bioavailability in Sprague-Dawley rat at 15 mg/kg, po; type: ADME, organism-based; conditions: in vivo
Rattus norvegicus [39] = experiment: Efficacy against Haemophilus influenzae in Sprague-Dawley rat lung infection model at 100 mg/kg; type: functional, organism-based; design: dose 100 mg/kg
[40] = Lung half life in Sprague-Dawley rat at 15 mg/kg, po; type: ADME, organism-based; design: dose 15 mg/kg, route oral
Staphylococcus aureus [41] = experiment: Antibacterial activity against Staphylococcus aureus 33591; type: functional
Rattus norvegicus [42] = experiment: Efficacy against Streptococcus pneumoniae Mef in Sprague-Dawley rat lung infection model at 50 mg/kg; type: functional, organism-based; design: dose 50 mg/kg
Streptococcus pyogenes = experiment: Antibacterial activity against Streptococcus pyogenes 8668; type: functional
Streptococcus pneumoniae [43] = experiment: Antibacterial activity against Streptococcus pneumoniae Mef 10095; type: functional
Streptococcus pneumoniae [44] = experiment: Antibacterial activity against Streptococcus pneumoniae Erm 5399; type: functional
Enterococcus faecalis [45] = experiment: Antibacterial activity against Enterococcus faecalis bc11148-2; type: functional
Streptococcus pneumoniae [46] = experiment: Antibacterial activity against Streptococcus pneumoniae Erm 3120; type: functional
Streptococcus pneumoniae [47] = experiment: Antibacterial activity against Streptococcus pneumoniae Erm 4290; type: functional
Streptococcus pneumoniae [48] = experiment: Antibacterial activity against Streptococcus pneumoniae Mef 4331; type: functional
Streptococcus pneumoniae [49] = experiment: Antibacterial activity against Streptococcus pneumoniae Mef S 3435; type: functional; conditions: Streptococcus pneumoniae; read-out: MIC
Streptococcus pneumoniae [50] = experiment: Antibacterial activity against Streptococcus pneumoniae Erm 7985; type: functional
Streptococcus pneumoniae [51] = experiment: Antibacterial activity against Streptococcus pneumoniae Mef 1556; type: functional
[52] = test system: Staphylococcus epidermidis; experiment: Antibacterial activity against Staphylococcus epidermidis 14990; type: functional
Streptococcus pneumoniae [53] = experiment: Antibacterial activity against Streptococcus pneumoniae Erm 6388; type: functional
Streptococcus pneumoniae [54] = experiment: Antibacterial activity against Streptococcus pneumoniae Mef 3855; type: functional
Haemophilus influenzae [55] = experiment: Antibacterial activity against Haemophilus influenzae 2762; type: functional
Rattus norvegicus [56] = experiment: Plasma AUC in Sprague-Dawley rat at 5 mg/kg, iv; type: ADME, organism-based; design: dose 5 mg/kg, route intravenous; conditions: in vivo
Streptococcus pneumoniae [57] = experiment: Antibacterial activity against Streptococcus pneumoniae Erm 5354; type: functional
[58] = Volume of distribution in Sprague-Dawley rat at 5 mg/kg, iv and 15 mg/kg, po; type: ADME, organism-based; conditions: in vivo, read-out: Vdss
Streptococcus pneumoniae [59] = experiment: Antibacterial activity against Streptococcus pneumoniae Mef 5654; type: functional
Streptococcus pneumoniae [60] = experiment: Antibacterial activity against Streptococcus pneumoniae Erm 4589; type: functional
Streptococcus pneumoniae [61] = experiment: Antibacterial activity against Streptococcus pneumoniae Mef 41; type: functional
Streptococcus pneumoniae [62] = experiment: Antibacterial activity against Streptococcus pneumoniae Mef 1790; type: functional
Streptococcus pneumoniae [63] = experiment: Antibacterial activity against Streptococcus pneumoniae Mef 9959; type: functional

In the case of `C=C[C@]12OC(=O)N(CCCCn3cnc(-c4ccc(Cl)nc4)c3)[C@@H]1[C@@H](C)C(=O)[C@H](C)C[C@@](C)(OC)[C@H](O[C@@H]1O[C@H](C)C[C@H](N(C)C)[C@H]1O)[C@@H](C)C(=O)[C@@H](C)C(=O)O[C@@H]2CC`, the MIC (Streptococcus pneumoniae [1]) was at most 0.05 µg/mL, the MIC (Streptococcus pneumoniae [2]) was 0.1 µg/mL (≈ 0.116 µM) and the bioavailability [3] was 91%. For the same compound, the MIC (Streptococcus pneumoniae [4]) was at most 0.013 µg/mL, the MIC (Streptococcus pneumoniae [5]) was at most 0.05 µg/mL and the MIC (Streptococcus pneumoniae [6]) was at most 0.05 µg/mL. For the same compound, the MIC (Streptococcus pneumoniae [7]) was 0.025 µg/mL (≈ 0.0291 µM), the Activity (Rattus norvegicus [8]) was “Active” and the half-life [9] was 1.3 h. It also gave a half-life [10] of 1.7 h, an MIC (Streptococcus pneumoniae [11]) of 0.025 µg/mL (≈ 0.0291 µM) and a Kp [12] of 94. For the same compound, the MIC (Streptococcus pneumoniae [13]) was 0.05 µg/mL (≈ 0.0582 µM), the MIC (Streptococcus pneumoniae [14]) was 0.025 µg/mL (≈ 0.0291 µM) and the MIC (Streptococcus pneumoniae [15]) was at most 0.05 µg/mL. The MIC (Enterococcus faecalis [16]) was at most 0.05 µg/mL, the MIC (Streptococcus pneumoniae [17]) was 0.2 µg/mL (≈ 0.233 µM) and the MIC (Streptococcus pneumoniae [18]) was 0.1 µg/mL (≈ 0.116 µM). It also gave an MIC (Streptococcus pneumoniae [19]) of at most 0.05 µg/mL, an MIC (Streptococcus pneumoniae [20]) of 0.05 µg/mL (≈ 0.0582 µM) and an MIC (Streptococcus pneumoniae [21]) of at most 0.05 µg/mL. It also gave an MIC (Streptococcus pneumoniae [22]) of 0.025 µg/mL (≈ 0.0291 µM), an MIC (Streptococcus pneumoniae [23]) of 0.1 µg/mL (≈ 0.116 µM) and an MIC (Staphylococcus aureus [24]) of at most 0.05 µg/mL. The MIC (Streptococcus pneumoniae [25]) was 0.025 µg/mL (≈ 0.0291 µM), the MIC (Streptococcus pneumoniae [26]) was at most 0.05 µg/mL and the MIC (Streptococcus pneumoniae [27]) was 0.05 µg/mL (≈ 0.0582 µM). For the same compound, the MIC (Streptococcus pneumoniae [28]) was 0.025 µg/mL (≈ 0.0291 µM), the MIC (Streptococcus pneumoniae [29]) was at most 0.05 µg/mL and the MIC [30] was at most 0.05 µg/mL. For the same compound, the MIC (Streptococcus pneumoniae [31]) was at most 0.05 µg/mL, the MIC (Streptococcus pneumoniae [32]) was at most 0.013 µg/mL and the MIC (Streptococcus pneumoniae [33]) was 0.1 µg/mL (≈ 0.116 µM). The MIC (Streptococcus pneumoniae [34]) was 0.025 µg/mL (≈ 0.0291 µM), the MIC (Streptococcus pneumoniae [35]) was 0.1 µg/mL (≈ 0.116 µM) and the MIC (Streptococcus pneumoniae [36]) was at most 0.05 µg/mL. The MIC (Haemophilus influenzae [37]) was 3.13 µg/mL (≈ 3.65 µM), the bioavailability [38] was 26% and the Activity (Rattus norvegicus [39]) was “Active”. For the same compound, the half-life [40] was 1.4 h, the MIC (Staphylococcus aureus [41]) was over 50 µg/mL and the Activity (Rattus norvegicus [42]) was “Active”. For the same compound, the MIC (Streptococcus pyogenes) was at most 0.05 µg/mL, the MIC (Streptococcus pneumoniae [43]) was at most 0.05 µg/mL and the MIC (Streptococcus pneumoniae [44]) was 0.025 µg/mL (≈ 0.0291 µM). For the same compound, the MIC (Enterococcus faecalis [45]) was 0.1 µg/mL (≈ 0.116 µM), the MIC (Streptococcus pneumoniae [46]) was 0.05 µg/mL (≈ 0.0582 µM) and the MIC (Streptococcus pneumoniae [47]) was 0.025 µg/mL (≈ 0.0291 µM). It also gave an MIC (Streptococcus pneumoniae [48]) of 0.1 µg/mL (≈ 0.116 µM), an MIC (Streptococcus pneumoniae [49]) of at most 0.05 µg/mL and an MIC (Streptococcus pneumoniae [50]) of at most 0.013 µg/mL. The MIC (Streptococcus pneumoniae [51]) was at most 0.05 µg/mL, the MIC [52] was at most 0.05 µg/mL and the MIC (Streptococcus pneumoniae [53]) was 0.4 µg/mL (≈ 0.466 µM). The MIC (Streptococcus pneumoniae [54]) was at most 0.05 µg/mL, the MIC (Haemophilus influenzae [55]) was 0.78 µg/mL (≈ 0.909 µM) and the AUC (Rattus norvegicus [56]) was 2300 ng·h/mL. It also gave an MIC (Streptococcus pneumoniae [57]) of 0.025 µg/mL (≈ 0.0291 µM), a Vd [58] of 12 L/kg and an MIC (Streptococcus pneumoniae [59]) of 0.1 µg/mL (≈ 0.116 µM). It also gave an MIC (Streptococcus pneumoniae [60]) of 0.025 µg/mL (≈ 0.0291 µM), an MIC (Streptococcus pneumoniae [61]) of 0.1 µg/mL (≈ 0.116 µM) and an MIC (Streptococcus pneumoniae [62]) of 0.1 µg/mL (≈ 0.116 µM). For the same compound, the MIC (Streptococcus pneumoniae [63]) was at most 0.05 µg/mL.

Reference: ChEMBL document CHEMBL1138190, “Synthesis and antibacterial activity of novel C12 vinyl ketolides” (J Med Chem, 2006)
